Test results taken from patent US20250176545A1, “LIQUID PESTICIDAL COMPOSITION” (SUMITOMO CHEMICAL COMPANY, LIMITED, priority 2022, published 2025).

Assay: Test Example 2: identification of decomposition products of compound (I) by mass spectra
Format: physicochemical
Conditions: composition with compound (I-A), compound (I-B), dicamba diglycolamine salt, acetic acid and potassium hydroxide, 50° C. for 8 weeks
Experimental: Test Example 2: Identification of Decomposition Product of Compound (I)
Mass spectra were measured for compositions containing the compound (I-A), the compound (I-B), a dicamba diglycolamine salt, acetic acid and potassium hydroxide, which were left to stand in an incubator at 50° C. for 8 weeks.
The decomposition product a is obtained as a result of ring-opening of a uracil ring due to the cleavage of a C—N bond (bond between an N atom at the 3-position and a C atom at the 4-position) included in an imide structure constituting a uracil ring structure of the compound (I-A), and a bond between an N atom at the 1-position and a C atom at the 6-position. The decomposed product b is obtained as a result of the addition of diglycolamine (DGA) to the terminal ethyl ester moiety, in addition to the ring-opening of the uracil ring of the compound (I-A).

| Compound | decomposition products confirmed |
| --- | --- |
| CCOC(=O)COc1ncccc1Oc1cc(-n2c(=O)cc(C(F)(F)F)n(C)c2=O)c(F)cc1Cl [compound (I-A)] | decomposition products a and b |
| C#CCN1C(=O)COc2cc(F)c(N3C(=O)C4=C(CCCC4)C3=O)cc21 [compound (I-B)] | decomposition product c |
